[1] = oral 1.3 mg/kg BID 14 days versus IT 0.25 mg/hour 5 days, higher in oral

Description: Animals were then sacrificed and a necropsy was immediately performed.
After stopping the 5-day treatment, animals were sacrificed and a necropsy was immediately performed. […] One hour after stopping the 14-day treatment, animals were sacrificed and a necropsy was immediately performed.
Animals were then sacrificed and a necropsy was immediately performed. […] Animals were then sacrificed and a necropsy was immediately performed.

- riluzole accumulation in the spinal cord, IT-treated compared to oral-treated dogs (IT 0.25 mg/hour 5 days versus oral 1.3 mg/kg BID 14 days, higher in IT): approximately 4 fold
- riluzole level in CSF, oral-treated compared to IT-treated dogs (oral 1.3 mg/kg BID 14 days versus IT 0.25 mg/hour 5 days): similar
- riluzole level in plasma, oral-treated compared to IT-treated dogs [1]: approximately 20 fold
- riluzole level in urine, oral-treated compared to IT-treated dogs [1]: approximately 3 fold
Compound: Nc1nc2ccc(OC(F)(F)F)cc2s1 [Riluzole, 2-Amino-6-(trifluoromethoxy)benzothiazole]

Reference: patent publication US10322114B2 (Above and Beyond NB LLC, priority 2017, dated 2019)
